Test results from US20190256502A1, “ORGANIC COMPOUNDS” (HOX THERAPEUTICS LIMITED, priority 2016, published 2019).
Read-outs that look alike come from different tables or passages of the source.

How the values were obtained:
[1] = system: MDA-MB-231 cells; test: MTT assay for cell killing, breast cancer cell line MDA-MB-231; type: cell-based; conditions: for IC50: Homo sapiens, MDA-MB-231, MTT, 72h
Experimental: The cytotoxicity of the peptides on the prostate cancer derived cell lines DU145, LnCaP, and PC3, and the breast cancer derived cell line MDA-MB-231 was tested as previously described (Morgan et al. 2014 ibid), using the MTT (3-[4,5-dimethylthiazol-2-yl]-2,5-diphenyltetrazolium bromide) assay for metabolic activity. 7000-16000 cells, depending on the cell line, were seeded onto 96-well cell plate and treated with 5, 10, 20, 40 and 80 μM of each compound for 72h, DMSO alone (negative control) for 72 hr, or HTL001 ([…]; International patent application published as WO2017068353; positive control) for 2 h. After treatment, MTT at a final concentration of 0.5 mg/ml was added. Upon 4h incubation the formed formazan crystals were dissolved in DMSO and the optical density (OD) measured at 540 nm with a spectrofluorimeter. Percentage of cell survival was calculated as a ratio of the mean OD value of treated vs. untreated cells. Experiments were repeated 3 times and statistical analysis performed using Student's t-test. All cell lines were cultured in RPMI media with added 10% FBS, 1% sodium pyruvate and 1% L-Glutamine. They were all cultured in an incubator at 37° C., 5% CO2. The assay was repeated 3 times and the results are given as the mean IC50 for cell killing±standard deviation.
The molecules were tested for their ability to induce cell death using the breast cancer cell line MDA-MB-231, with the HOX/PBX interfering peptide HTL001 (WYKWMKKAARRRRRRRRR; International patent application published as WO2017068353) as a positive control and DMSO as a negative control. Percentage of cell survival was evaluated with the MTT assay after treatment with different concentrations ([…], 10, 20, 40 and 80 μM) of each compound for 72h. The IC50 was evaluated as the concentration of the compound that reduces % of cell survival by half.
MDA-MB-231 cells were treated with different concentrations of Example 2 dissolved in either DMSO or PEG/Tris HCl and MTT assay performed. Data are means±SEM of four independent experiments.

[2] = system: cFOS; test: cFOS expression in MDA-MB-231 cells (qRT-PCR); type: cell-based; conditions: for fold induction at 33 µM: Homo sapiens, qRT-PCR; for fold induction at 33 µM / cFos expression compared to untreated MDA-MB-231 cells: MDA-MB-231 cells, 2h, 33 μM
Experimental: MDA-MB-231 cells were seeded in 25 cm^2 plates and treated for 2h with 33 μM of each compound at 80% confluence. RNA was isolated using RNeasy Mini Kit-QIAGEN according to manufacturer's instructions and quantified with NanoDrop ND-1000. cDNA was generated from 1 μg of total RNA using High Capacity cDNA Reverse Transcription Kit in a 25 μl final reaction volume according to the manufacturer protocol. The expression of cFOS was quantified by qRT-PCR. Real-time PCR reactions were performed using 1:10 dilution (5 μl/well) of each cDNA added to TaqMan Universal PCR Master Mix and TaqMan Gene Expression Assay Hs00170630_m1 FOS. Amplification of glyceraldehyde 3-phosphate dehydrogenase (GAPDH) probe was performed as endogenous control. The comparative Ct method (ΔΔCt algorithm) was used for analysis. Independent experiments were performed in triplicates and repeated three times. Statistical analysis was performed with Student's t-test.
MDA MB 231 cells were treated for 4h with 4×IC50 Example 2 in PEG/Tris HCl. RNA was isolated and RT-PCR performed to detect expression of cFOS. Data are means±SEM of four independent experiments. Significance to PEG/Tris HCl: **p<0.01 (Ttest).

[3] = system: MDA-MB-231 tumour; test: In vivo study, MDA-MB-231 tumour in Balb-c nude mice; conditions: 20 mg/Kg, IP, day 0, 3, 6, 9, 10 & 13
Experimental: MDA-MB-231 cells were injected subcutaneously into female or male Balb-c nude mice aged 6 to 12 weeks (Harlan, UK). When the tumour size reached 100 mm^3 mice were injected intratumouraly with Example 2 at the intervals shown on the graph. Mice were sacrificed when the tumour size reached 1000 mm^3 or at the end of the experiment (14 days).
Treatment of MDA-MB-231 tumour with Example 2 (ICT9119): Group 1—Untreated controls Group 2—10% DMSO/Oil solvent control, IP, day 0, 3, 6, 9, 10 & 13 Group 3—Example 2, 20 mg/Kg, IP, day 0, 3, 6, 9, 10 & 13

[4] = Solubility studies; type: physicochemical
Description: Example 2 was solubilised in PEG400 and propylene glycol (PG).

[5] = system: cFOS; test: cFOS expression in PC3 prostate cancer cells (RT-PCR); type: cell-based; conditions: 4h, 120 μM in PEG/Tris HCl
Experimental: (§1) PC3 cells were treated for 4h with 120 μM Example 2 in PEG/Tris HCl. RNA was isolated and RT-PCR performed to detect expression of cFOS and DUSP1. Data are means±SEM of three independent experiments. Significance to PEG/Tris HCl: **p<0.01, ***p<0.001 (Ttest).

[6] = system: DUSP1; test: DUSP1 expression in PC3 prostate cancer cells (RT-PCR); type: cell-based; conditions: 4h, 120 μM in PEG/Tris HCl
Experimental: as §1

[7] = system: cFOS; test: cFOS expression in DU145 prostate cancer cells (RT-PCR); type: cell-based; conditions: 4h, 120 μM in PEG/Tris HCl
Experimental: (§2) DU145 cells were treated for 4h with 120 μM Example 2 in PEG/Tris HCl. RNA was isolated and RT-PCR performed to detect expression of cFOS and DUSP1. Data are means±SEM of three independent experiments. *p<0.05 (Ttest).

[8] = system: DUSP1; test: DUSP1 expression in DU145 prostate cancer cells (RT-PCR); type: cell-based; conditions: 4h, 120 μM in PEG/Tris HCl
Experimental: as §2

[9] = biological target: T1, HOXB4/PBX2 dimers (Homo sapiens, UniProt P40425); test: Cell based ELISA assay for HOX/PBX binding (HOXB4/PBX2 dimer assay); conditions: MDA-MB-231 cells treated with 10 μM for 4 hours; compared to negative control (DMSO); read-out: % inhibition of HOXB4/PBX2 dimer formation
T1 construct: endogenous in cells; host or cells: MDA-MB-231
T1 sequence (P40425 1-430): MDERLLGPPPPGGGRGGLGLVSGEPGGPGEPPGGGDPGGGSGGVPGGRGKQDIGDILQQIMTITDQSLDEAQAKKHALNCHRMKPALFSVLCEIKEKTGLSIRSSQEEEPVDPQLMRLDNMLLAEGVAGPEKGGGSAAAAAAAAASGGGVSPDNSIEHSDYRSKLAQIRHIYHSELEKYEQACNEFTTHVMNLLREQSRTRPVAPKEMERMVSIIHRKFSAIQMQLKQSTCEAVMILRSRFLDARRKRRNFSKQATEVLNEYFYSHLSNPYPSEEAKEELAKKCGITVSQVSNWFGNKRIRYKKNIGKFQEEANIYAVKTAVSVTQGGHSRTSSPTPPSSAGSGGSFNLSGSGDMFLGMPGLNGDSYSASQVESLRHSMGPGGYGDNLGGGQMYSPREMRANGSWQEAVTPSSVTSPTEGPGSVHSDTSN
Experimental: In order to directly assess the ability of each compound to disrupt HOX/PBX binding a cell-based assay system was developed that could allow the formation of HOX/PBX/DNA dimers. Cultured MDA-MB-231 cells were treated with 10 μM of each compound for 4 hours and then used to generate a cell lysate using a standard preparation method as described below. HOXB4/PBX2 dimers were then measured using an ELISA-based system as detailed in the table below. The values from this assay are expressed as % inhibition of dimer formation compared to a negative control (DMSO).
1. Collect approximately 5.0×10^7 cells by low-speed centrifugation at RT for 5 min. Carefully remove culture medium. 2. Wash the cellular debris (pellet) with PBS at RT, and collect by low-speed centrifugation. Carefully remove supernatant (total protein). 3. Add 1.0 ml of pre-cold RIPA buffer (or other appropriate buffer) with freshly added (Protease Inhibitors) and/or (Phosphatase Inhibitors). Gently resuspend cells in RIPA buffer with a pipet and incubate on ice for 30 min. 4. Further disrupt and homogenize cells by passing through a 21-gauge needle, dounce homogenization or sonication, taking care not to raise the temperature of the lysate. (Optional: Add 10 μl of 10 mg/ml PMSF stock) Incubate 30 min on ice. 5. Transfer to microcentrifuge tube(s) and centrifuge at 10,000×g for 10 min at 4° C. […]

[10] = average of experiments, read-out: IC50 Average
[11] = single experiment 1, read-out: IC50 Exp1
[12] = single experiment 2, read-out: IC50 Exp2
[13] = single experiment 3, read-out: IC50 Exp3
[14] = no induced cell death observed at 80 μM, read-out: IC50 values for the urea analogue reference examples
[15] = MDA-MB-231 tumour in Balb-c nude mice
[16] = single experiment 4, read-out: IC50 Exp4

CNC(=S)NCC(c1cccs1)c1c[nH]c2ccccc12 (stereo not shown) [Example 6]
IC50 [1, 10]: 61.6 µM | IC50 [1, 11]: 68 µM | IC50 [1, 12]: 48 µM | IC50 [1, 13]: 68.9 µM

O=C(NCC1CC1)NCC(c1cccs1)c1c[nH]c2ccccc12 (stereo not shown) [B, reference compound]
IC50 [1, 14]: > 80 µM

CCNC(=S)NCC(c1cccs1)c1c[nH]c2ccccc12 (stereo not shown) [Example 7]
IC50 [1, 10]: 60.9 µM | IC50 [1, 11]: 51.8 µM | IC50 [1, 12]: 65.8 µM | IC50 [1, 13]: 65 µM

C#CCNC(=O)NCC(c1cccs1)c1c[nH]c2ccccc12 (stereo not shown) [A, reference compound]
IC50 [1, 14]: > 80 µM

CCCCCCNC(=S)NCC(c1cccs1)c1c[nH]c2ccccc12 (stereo not shown) [Example 2, 1-hexyl-3-[2-(1H-indol-3-yl)-2-(2-thienyl)ethyl]thiourea]
IC50 [1, 10]: 37.9 µM | IC50 [1, 11]: 36.7 µM | IC50 [1, 12]: 39 µM | MDA-MB-231 cell survival, in PEG/Tris HCl in comparison with in DMSO ([1]; MTT assay, four independent experiments, p<0.05): significantly decreased | cFOS expression in MDA-MB-231 cells ([2]; 4h, 4×IC50, in PEG/Tris HCl, p<0.01 to PEG/Tris HCl): significantly increased | Maximum % weight loss ([3]; Balb-c nude mice): 0% | Growth delay [3, 15]: 4.2 days | Median time RTV 2 [3, 15]: 8.9 days | behaviour on dilution with water ([4]; diluted with water with polysorbate 80 (Tween 80) at a final concentration of 5%): remained in solution | concentration achieved in propylene glycol (PG) ([4]; solubilised in PG): up to 5 mg/mL | cFOS expression in PC3 cells [5]: significantly increased | DUSP1 expression in PC3 cells [6]: significantly increased | cFOS expression in DU145 cells [7]: significantly increased | DUSP1 expression in DU145 cells [8]: significantly increased

C=C(C)CNC(=S)NCC(c1cccs1)c1c[nH]c2ccccc12 (stereo not shown) [Example 5]
IC50 [1, 10]: 45.5 µM | IC50 [1, 11]: 47.9 µM | IC50 [1, 12]: 45 µM | IC50 [1, 13]: 43.7 µM | inhibition at 10 µM [9]: 39.2% | fold induction at 33 µM [2]: 37.4 | cFos expression compared to untreated MDA-MB-231 cells [2]: significant increase

CCCCCCCNC(=S)NCC(c1cccs1)c1c[nH]c2ccccc12 (stereo not shown) [Example 1, 1-heptyl-3-[2-(1H-indol-3-yl)-2-(2-thienyl)ethyl]thiourea]
IC50 [1, 10]: 33 µM | IC50 [1, 11]: 21.8 µM | IC50 [1, 12]: 44.3 µM | fold induction at 33 µM [2]: 32.5 | cFos expression compared to untreated MDA-MB-231 cells [2]: significant increase

CCCNC(=O)NCC(c1ccsc1)c1c[nH]c2ccccc12 (stereo not shown) [C, reference compound]
IC50 [1, 14]: > 80 µM

CCCCNC(=S)NCC(c1cccs1)c1c[nH]c2ccccc12 (stereo not shown) [Example 9]
IC50 [1, 10]: 41.2 µM | IC50 [1, 11]: 40.9 µM | IC50 [1, 12]: 37.3 µM | IC50 [1, 13]: 29.8 µM | IC50 [1, 16]: 41 µM | IC50 ([1]; single experiment 5, read-out: IC50 Exp5): 57.2 µM

CCCNC(=S)NCC(c1cccs1)c1c[nH]c2ccccc12 (stereo not shown) [Example 8]
IC50 [1, 10]: 51.9 µM | IC50 [1, 11]: 42.7 µM | IC50 [1, 12]: 48.6 µM | IC50 [1, 13]: 56.1 µM | IC50 [1, 16]: 59.9 µM

CCCCCNC(=S)NCC(c1cccs1)c1c[nH]c2ccccc12 (stereo not shown) [Example 3, 1-pentyl-3-[2-(1H-indol-3-yl)-2-(2-thienyl)ethyl]thiourea]
IC50 [1, 10]: 35.3 µM | IC50 [1, 11]: 21.3 µM | IC50 [1, 12]: 49.2 µM

C=C(C)CNC(=O)NCC(c1ccsc1)c1c[nH]c2ccccc12 (stereo not shown) [D, reference compound]
IC50 [1, 14]: > 80 µM

S=C(NCC1CCCCC1)NCC(c1cccs1)c1c[nH]c2ccccc12 (stereo not shown) [Example 4, 1-cyclohexylmethyl-3-[2-(1H-indol-3-yl)-2-(2-thienyl)ethyl]thiourea]
IC50 [1, 10]: 53 µM | IC50 [1, 11]: 65.8 µM | IC50 [1, 12]: 40.3 µM
